In brackets after ≈: the same amount, converted by molar mass.
Test system: Gram-negative bacteria
Assay: MIC and permeabilization measurements, strain not stated (Table 14, Fig. 5)
Settings: Table 14

CC(CCCO)C1CCC2C3C(NC(=O)C(N)CCCCN)CC4CC(NC(=O)C(N)CCCCN)CCC4(C)C3CC(NC(=O)C(N)CCCCN)C12C (stereo not drawn) [Compound 209c]
MIC: 85 µg/mL (≈ 110 µM) | a: concentration of cholic acid derivatives required to lower MIC of erythromycin to 1 µg/ML: 45 µg/mL | b: concentration of cholic acid derivatives required to lower MIC of novobiocin to 1 µg/ML: 60 µg/mL

Reference: patent publication EP1311531B1, “STEROID DERIVED ANTIBIOTICS” (Brigham Young University, priority 2000, dated 2002)
